The record followed here is ChEMBL document CHEMBL1212876, “Characterization of new PPARgamma agonists: benzimidazole derivatives-importance of positions 5 and 6, and computational studies on the binding mode” (Bioorg Med Chem, 2010).

The target in assay [1] is T1, Peroxisome proliferator-activated receptor gamma (Homo sapiens, UniProt P37231).
T1 sequence (P37231 whole entry): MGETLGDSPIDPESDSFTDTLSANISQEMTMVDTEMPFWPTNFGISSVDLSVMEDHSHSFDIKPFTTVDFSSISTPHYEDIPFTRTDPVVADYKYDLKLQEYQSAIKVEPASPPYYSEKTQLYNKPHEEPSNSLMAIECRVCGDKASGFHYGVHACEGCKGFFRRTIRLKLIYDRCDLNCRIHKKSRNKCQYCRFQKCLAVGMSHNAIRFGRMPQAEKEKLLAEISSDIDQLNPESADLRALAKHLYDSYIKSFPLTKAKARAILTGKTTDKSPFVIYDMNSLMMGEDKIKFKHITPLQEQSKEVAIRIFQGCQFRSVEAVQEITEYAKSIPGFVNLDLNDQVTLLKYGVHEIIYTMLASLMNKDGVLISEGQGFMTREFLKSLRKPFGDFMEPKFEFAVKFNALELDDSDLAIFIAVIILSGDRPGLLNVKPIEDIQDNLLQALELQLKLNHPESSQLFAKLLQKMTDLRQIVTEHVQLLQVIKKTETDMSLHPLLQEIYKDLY
Description: Activation of Gal4-tagged human PPARgamma expressed in CHO cells by luciferase reporter gene assay

Assay [2] is described as follows: Induction of adipocyte differentiation in mouse 3T3-L1 cells at 10 uM.

In assay [1], `CCCc1nc2c(C)cc(-c3nc4ccccc4n3C)cc2n1Cc1ccc(-c2ccccc2C(=O)O)cc1` registered an EC50 of 3400 nM. The same compound registered an Activity in assay [2] of 70%.
The corresponding values for `CCCc1nc2ccccc2n1Cc1ccc(-c2ccccc2C(=O)O)cc1` are 1900 nM and 67%.
As for `CCCc1nc2cc(Br)ccc2n1Cc1ccc(-c2ccccc2C(=O)O)cc1`, in assay [2], the Activity turned out to be 103%.
Consider `CCCc1nc2ccc(Br)cc2n1Cc1ccc(-c2ccccc2C(=O)O)cc1`, for which a half-maximal effect in assay [1] (EC50) was put at 470 nM. This compound came in with an Activity in assay [2] of 102%.
The corresponding values for `CCCc1nc2cc(Br)c(Br)cc2n1Cc1ccc(-c2ccccc2C(=O)O)cc1` are 400 nM and 74%.
On to `CCCc1nc2cc(C(=O)c3ccccc3)ccc2n1Cc1ccc(-c2ccccc2C(=O)O)cc1`, for which the midpoint of the response in assay [1], the EC50, lay at 580 nM. The same compound registered an Activity in assay [2] of 104%.
Taken in the same sequence, the figures for `CCCc1nc2ccc(C(=O)c3ccccc3)cc2n1Cc1ccc(-c2ccccc2C(=O)O)cc1` were 620 nM and 97%.
Compound `CCCc1nc2cc(C(O)c3ccccc3)ccc2n1Cc1ccc(-c2ccccc2C(=O)O)cc1` (stereo not given) returned an EC50 in assay [1] of 2900 nM. In addition, the Activity in assay [2] was found to be 100%.
Turning to `CCCc1nc2ccc(C(O)c3ccccc3)cc2n1Cc1ccc(-c2ccccc2C(=O)O)cc1` (stereo not given), the concentration for a half-maximal effect (EC50) in assay [1] was determined as 3500 nM. Moreover, the Activity in assay [2] is 88%.
The corresponding values for `CCCc1nc2cc3ccccc3cc2n1Cc1ccc(-c2ccccc2C(=O)O)cc1` are 260 nM and 105%.
Consider `CCc1ccc(CCOc2ccc(CC3SC(=O)NC3=O)cc2)nc1` (stereo not given) [PIOGLITAZONE], for which, in assay [2], the Activity was 100%.
